Measured values from ChEMBL document CHEMBL3507680, “University of Dundee, Gates Library screen for HepG2 cell viability”.

Assay: Human HepG2 cell viability assay in 384 well format
Format: toxicity, cell-based
Design: dose 125 nL, time 70.5 hour; concentration not given beside the values
Conditions: HepG2 cells, read-out: Inhibition

CC(C)NC(=O)CN(C)C1CCN(c2cnc3ccccc3n2)CC1
cytotoxicity at 70.5 h: 20.5%

Cc1nsc(NC2CC(=O)N(C(C)(C)C)C2)n1 (stereo not given)
cytotoxicity at 70.5 h: 11.5%

O=C(NCCCF)Nc1ccc2nc(N3CCOCC3)oc2c1
cytotoxicity at 70.5 h: 12.5%

CC(C)N(Cc1ccc(C#N)cc1)C(=O)Nc1ccccn1
cytotoxicity at 70.5 h: -7.3%

CN(CC1CCCCC1)C(=O)c1cn(C)nc1-c1cccnc1
cytotoxicity at 70.5 h: 3.52%

CCN(C)C(C(=O)Nc1ccc2c(c1)CCC(=O)N2)c1ccccc1 (stereo not given)
cytotoxicity at 70.5 h: -15.5%

O=C1CCCN1CC1CCCCN1C(=O)Nc1cccnc1 (stereo not given)
cytotoxicity at 70.5 h: -1.1%

CC/C=C(/C)C(=O)NCc1ccnc(OC2CCOCC2)c1
cytotoxicity at 70.5 h: -9.32%

O=S(=O)(CC1CCOCC1)NCc1ncc(-c2ccccc2)o1
cytotoxicity at 70.5 h: -5.19%

CCC(CC(=O)Nc1ccc2c(c1)CC(=O)N2)c1ccccc1 (stereo not given)
cytotoxicity at 70.5 h: -6.03%

FC(F)(F)c1n[nH]c2c1CN(Cc1cn3ccccc3n1)CC2
cytotoxicity at 70.5 h: -6.32%

Cc1nc(NC(=O)OC(C)(C)C)sc1C#N
cytotoxicity at 70.5 h: -6.61%

O=C(Nc1ccc(F)cc1)N(CCC(F)(F)F)C[C@H](O)CO
cytotoxicity at 70.5 h: -0.146%

CCN(CC)S(=O)(=O)N(C)Cc1ccncc1
cytotoxicity at 70.5 h: -8.49%

CC(CCN(C)C)NC(=O)N1CCSC(C)(C)C1 (stereo not given)
cytotoxicity at 70.5 h: -1.34%

COc1cccc(NC(=O)N(CCC(F)(F)F)C[C@H](O)CO)c1
cytotoxicity at 70.5 h: -4.42%

CN(CC1CCCC1)C(=O)c1cn(C)nc1-c1cccnc1
cytotoxicity at 70.5 h: -3.43%

O=C(Nc1ccc(F)cc1F)N(CCC(F)(F)F)C[C@H](O)CO
cytotoxicity at 70.5 h: -12.9%

CCOc1ccccc1CNC(=O)NCC(c1cnn(C)c1)N(C)C (stereo not given)
cytotoxicity at 70.5 h: -9.13%

COCCc1noc(CN(C)c2cc(C)ncn2)n1
cytotoxicity at 70.5 h: 17.1%

c1cncc(OCCNC2Cc3ccccc3C2)c1
cytotoxicity at 70.5 h: -14.1%

CN(CC1CCOCC1)C(=O)NCCCN1CCCCC1
cytotoxicity at 70.5 h: -3.15%

Nc1nccnc1C(=O)N1CCN(CCOc2ccccc2)CC1
cytotoxicity at 70.5 h: 20.7%

COc1ccccc1COCC(O)CN(C)c1ccc(C)cc1C (stereo not given)
cytotoxicity at 70.5 h: 15.1%

CC(=O)NCCC(=O)NC1(c2ccc(Cl)c(Cl)c2)CC1
cytotoxicity at 70.5 h: -3.79%

Cn1c(SCC(=O)NC(C)(C#N)C2CC2)nc2ccccc21 (stereo not given)
cytotoxicity at 70.5 h: 0.675%

Cn1cc(C2CCCN2C(=O)Cn2ccc3ccc(Cl)cc32)cn1 (stereo not given)
cytotoxicity at 70.5 h: 12.2%

Cc1cc(NC(=O)N(C)C2CCN(c3ccccc3F)C2=O)n(C)n1 (stereo not given)
cytotoxicity at 70.5 h: -0.35%

Cc1cnn(CCNCCCOc2ccc3c(c2)OCO3)c1
cytotoxicity at 70.5 h: -0.972%

CN(CC(=O)NC(C)(C#N)C1CC1)Cc1nnc(C2CC2)n1C (stereo not given)
cytotoxicity at 70.5 h: 1.7%

CC(C)c1nc(C2CCCN2c2ncc(C(N)=O)cc2Cl)no1 (stereo not given)
cytotoxicity at 70.5 h: 12.4%

CN(CC(=O)NC(C)(C#N)C1CC1)Cc1nc2ccccc2n1C (stereo not given)
cytotoxicity at 70.5 h: 4.49%

COCCNC(=O)NCCCOC1CCCc2ccccc21 (stereo not given)
cytotoxicity at 70.5 h: 1.91%

Cc1nc(Cn2cc(I)cc(C)c2=O)oc1C
cytotoxicity at 70.5 h: 2.15%

O=C(CCc1ccsc1)N1CCC(C(=O)O)(c2ccccc2)CC1
cytotoxicity at 70.5 h: -0.12%

CN1CCN(C(=O)CCc2cccnc2)c2ccc(F)cc21
cytotoxicity at 70.5 h: 1.2%

FC(F)Oc1ccc(NCc2nc(C3CC3)no2)c(OC(F)F)c1
cytotoxicity at 70.5 h: 1.35%

Cc1cccc(NC(=O)CCNCc2c(C)nn(C)c2N(C)C)n1
cytotoxicity at 70.5 h: 2.77%

COc1ccc(COCC(O)CN(C)c2ccc(C)cc2C)cc1 (stereo not given)
cytotoxicity at 70.5 h: 0.463%

COc1ccc2c(ccn2CC(=O)N2CCCC2Cn2cccn2)c1 (stereo not given)
cytotoxicity at 70.5 h: 3.03%

Cc1cnn(CCNCCCOc2ccc(C#N)cc2)c1
cytotoxicity at 70.5 h: 3.37%

c1cnn(CCNCCCOc2ccc3c(c2)OCO3)c1
cytotoxicity at 70.5 h: 0.993%

CC1CN(Cc2ccccc2)CCCN1CCNS(C)(=O)=O (stereo not given)
cytotoxicity at 70.5 h: -0.345%

Cc1cnn(CCCNC2Cc3ccccc3C2)c1
cytotoxicity at 70.5 h: 9.93%

CCC(C)NC(=O)CS(=O)(=O)Cc1cc(C)ccc1C (stereo not given)
cytotoxicity at 70.5 h: -11.2%

CCc1noc(CS(=O)(=O)CC(=O)N2c3ccccc3CC2C)n1 (stereo not given)
cytotoxicity at 70.5 h: -12.6%

CN(C)C(CNCc1nc(-c2ccsc2)no1)c1ccsc1 (stereo not given)
cytotoxicity at 70.5 h: 4.31%

CN(C)c1ccc(NC(=O)N2CCCCCC2c2ccncc2)cn1 (stereo not given)
cytotoxicity at 70.5 h: -10.6%

O=C(CNC(=O)c1cnc2ccccc2c1O)NCCn1ccnc1
cytotoxicity at 70.5 h: -6.04%

CCS(=O)(=O)CC(=O)NC(C)c1ccc(F)cc1F (stereo not given)
cytotoxicity at 70.5 h: -6.32%

Cc1n[nH]cc1CNC1(c2ccc(Br)cc2)CC1
cytotoxicity at 70.5 h: -0.84%

Cc1n[nH]c(C2CN(Cc3csc(C4CCCCC4)n3)CCO2)n1 (stereo not given)
cytotoxicity at 70.5 h: 0.0665%

CSCC(C)(O)CNc1ccccn1 (stereo not given)
cytotoxicity at 70.5 h: -1.72%

Cc1cc(C)c(C(=O)NCCNc2ncnc3ccccc23)c(=O)[nH]1
cytotoxicity at 70.5 h: -2.04%

COc1ccccc1NC(=O)NCc1cn[nH]c1
cytotoxicity at 70.5 h: -7.77%

CNS(=O)(=O)c1csc(C(=O)N(C)Cc2sccc2C)c1
cytotoxicity at 70.5 h: -6.58%

CSCC(C)(O)CNc1ncccc1C(F)(F)F (stereo not given)
cytotoxicity at 70.5 h: 1.25%

CN(C)C(=O)CN1CCO[C@H]2CN(Cc3cccc(F)c3)C[C@H]21
cytotoxicity at 70.5 h: -8.07%

Cc1oncc1C(=O)N1CC[C@H]2[C@H]1CCN2S(C)(=O)=O
cytotoxicity at 70.5 h: -1.36%

Cc1noc([C@@]23CCO[C@@H]2CCN(S(=O)(=O)c2cccnc2)C3)n1
cytotoxicity at 70.5 h: -6.17%

O=C(NCCc1cccc(F)c1)c1nc2c(s1)CCCN2C(=O)C1CC1
cytotoxicity at 70.5 h: -5.89%

Cc1ccc(N2CCc3ncnc(C4CC4)c3CC2)nn1
cytotoxicity at 70.5 h: 21.3%

c1cnc(N2CCO[C@H]3CN(CC4CCCC4)C[C@H]32)cn1
cytotoxicity at 70.5 h: 2.36%

COCCN1C(=O)CC(c2cccnc2)C12CCN(C)CC2 (stereo not given)
cytotoxicity at 70.5 h: 0.172%

Cc1csc([C@@H]2C[C@@H]3CCN(Cc4cc(C)on4)C[C@H]3O2)n1
cytotoxicity at 70.5 h: -6.2%

Cc1noc([C@]23COC[C@H]2CN(C(=O)Cc2ccsc2)C3)n1
cytotoxicity at 70.5 h: -2.9%

O=C(NC[C@H]1C[C@@H]2CN(C(=O)c3ccco3)C[C@@H]2O1)c1ccsc1
cytotoxicity at 70.5 h: -3.16%

COCC1c2nnn(C)c2CCN1C(=O)Cc1ccccn1 (stereo not given)
cytotoxicity at 70.5 h: -3.79%

Cn1cc(C(=O)N[C@@H]2CN(Cc3ccoc3)[C@@H]3CCCO[C@@H]32)cn1
cytotoxicity at 70.5 h: -5.02%

CCN1CC2(CC1=O)CN(C(=O)NC(C)C)CCN(S(C)(=O)=O)C2 (stereo not given)
cytotoxicity at 70.5 h: -2.48%

CCN1CC2(CC1=O)CN(C(C)=O)CCN(C(=O)NC)C2 (stereo not given)
cytotoxicity at 70.5 h: -3.8%

CCN1CC2(CC1=O)CN(C(=O)NC(C)C)CCN(C(=O)C(C)C)C2 (stereo not given)
cytotoxicity at 70.5 h: -3.19%

N#Cc1cccc(C(=O)NC2CCc3c(ccc(=O)n3CC3CC3)C2)c1 (stereo not given)
cytotoxicity at 70.5 h: -2.82%

COc1ccc(CC(=O)N2CC[C@@H]3CN(C)S(=O)(=O)[C@@H]3CC2)cc1
cytotoxicity at 70.5 h: -5.74%

COCC(=O)N1C[C@H]2CCC[C@@]2(COC)C1
cytotoxicity at 70.5 h: -5.02%

CCOCC(=O)N1C[C@H]2CCC[C@@]2(COC)C1
cytotoxicity at 70.5 h: -7.78%

Cc1cccc(CN2C[C@@H]3OCCN(CC(=O)N(C)C)[C@@H]3C2)c1
cytotoxicity at 70.5 h: -8.16%

CC(C)CN1C(=O)CC[C@]12CC[C@@H](NC(=O)NCc1cccnc1)CC2
cytotoxicity at 70.5 h: -3.62%

CCC(=O)Nc1ccc2c(c1)C1(CCOCC1)CN2CCOC
cytotoxicity at 70.5 h: 13.5%

Cc1ccc(N2CC[C@@H]3[C@@H]2CCN3C(=O)Cc2ccsc2)nn1
cytotoxicity at 70.5 h: -4.23%

Cc1ccc(N2CC[C@@H]3[C@@H]2CCN3C(=O)Cc2cccs2)nn1
cytotoxicity at 70.5 h: -3.66%

CN(C)CCNC(=O)c1nc2c(s1)CCCN2C(=O)C1CC1
cytotoxicity at 70.5 h: -2.21%

O=C(c1ccncc1)N1CCOC2(CCCN(c3nncs3)C2)C1 (stereo not given)
cytotoxicity at 70.5 h: -0.0919%

c1ccc(CN2Cc3nccn3CC(Cn3cccn3)C2)nc1 (stereo not given)
cytotoxicity at 70.5 h: -3.5%

CC(=O)N1CCO[C@@H]2CN(Cc3cccc(Cl)c3)C[C@@H]2C1
cytotoxicity at 70.5 h: -2.75%

Cn1cc(CN2C[C@@H]3COC[C@]3(COCC3CC3)C2)cn1
cytotoxicity at 70.5 h: -5.3%

c1cnc(N2CCO[C@H]3CN(CC4CCC4)C[C@H]32)cn1
cytotoxicity at 70.5 h: -4.76%

Cn1ccnc1C(=O)N[C@@H]1CN(Cc2ccc(F)cc2)[C@@H]2CCCO[C@@H]21
cytotoxicity at 70.5 h: -3.63%

COc1ncccc1C(=O)N1CCC2(CC1)CC(OC)CO2 (stereo not given)
cytotoxicity at 70.5 h: -6.77%

CC(=O)N1CCCC2(C1)CN(c1nncs1)CCO2 (stereo not given)
cytotoxicity at 70.5 h: -4.62%

c1cncc(N2CCO[C@H]3CN(CC4CCOC4)C[C@H]32)c1 (stereo not given in full)
cytotoxicity at 70.5 h: -3.42%

CC1N(c2cnn(C)c2)C(=O)COC12CCN(c1ccccn1)CC2 (stereo not given)
cytotoxicity at 70.5 h: -2.76%

CO[C@@H]1CCN(C(=O)Cc2cccc(F)c2)[C@H]1Cc1cccnc1
cytotoxicity at 70.5 h: -3.88%

CC1N(c2cnn(C)c2)C(=O)COC12CCN(CC1CC1)CC2 (stereo not given)
cytotoxicity at 70.5 h: -3.07%

CO[C@@H]1CCN(C(=O)Cc2ccsc2)[C@H]1Cc1cccnc1
cytotoxicity at 70.5 h: -5.91%

Cc1nc(CN2CCN(C)C(=O)C23CCN(C(C)C)CC3)cs1
cytotoxicity at 70.5 h: -9.48%

CCN1CCN(C)C(=O)C12CCN(Cc1csc(C)n1)CC2
cytotoxicity at 70.5 h: -8.47%

COc1cccc(CC(=O)N2CC[C@@H]3[C@H](CC2)N(C)CCS3(=O)=O)c1
cytotoxicity at 70.5 h: -2.21%

CN1CCN(CC2CC2)C(=O)C12CCN(C(=O)CC(F)(F)F)CC2
cytotoxicity at 70.5 h: -4.4%

CNC(=O)[C@H]1C[C@@H]2CN(Cc3cccc(C)c3)C[C@H]1O2
cytotoxicity at 70.5 h: -6.34%

O=C([C@H]1CC[C@@H]2[C@@H](CCN2C2CCOCC2)O1)N1CCOCC1
cytotoxicity at 70.5 h: -6.52%

O=C([C@H]1CC[C@@H]2[C@@H](CCN2C2CCCCC2)O1)N1CCOCC1
cytotoxicity at 70.5 h: -7.67%

c1cnc(N2CCO[C@H]3CN(CC4CCOCC4)C[C@H]32)nc1
cytotoxicity at 70.5 h: -3.7%

CN1CC[C@@H]2OC[C@H](C(=O)N(C)Cc3ccccn3)C[C@@H]2C1
cytotoxicity at 70.5 h: 2.32%

O=C(C[C@@H]1COC[C@H]2CN(Cc3cccnc3)C[C@@H]12)NCC1CC1
cytotoxicity at 70.5 h: -4.39%

CN1CCN(C(=O)[C@H]2C[C@H]3[C@H](CCN3Cc3cccs3)O2)CC1
cytotoxicity at 70.5 h: -2.03%

Cc1cnc(N2CCC3(CC2)CN(Cc2cccs2)CCO3)nc1
cytotoxicity at 70.5 h: -8.99%

Fc1cnc(N2CCOC3(CCN(Cc4cccs4)CC3)C2)nc1
cytotoxicity at 70.5 h: -6.76%

Cc1ccc(CN2CCc3onc(C(=O)NCCN(C)C)c3C2)o1
cytotoxicity at 70.5 h: -8.28%

c1cc(CN2CCN3C[C@H](Oc4cncnc4)C[C@H]3C2)ccn1
cytotoxicity at 70.5 h: -5.1%
